Series [1] in a line: Permeability, PAMPA assay. The series is classed as in vitro ADME.
The target of series [2] is T1, VDR (Homo sapiens, UniProt P11473).
T1 sequence (P11473 1-427): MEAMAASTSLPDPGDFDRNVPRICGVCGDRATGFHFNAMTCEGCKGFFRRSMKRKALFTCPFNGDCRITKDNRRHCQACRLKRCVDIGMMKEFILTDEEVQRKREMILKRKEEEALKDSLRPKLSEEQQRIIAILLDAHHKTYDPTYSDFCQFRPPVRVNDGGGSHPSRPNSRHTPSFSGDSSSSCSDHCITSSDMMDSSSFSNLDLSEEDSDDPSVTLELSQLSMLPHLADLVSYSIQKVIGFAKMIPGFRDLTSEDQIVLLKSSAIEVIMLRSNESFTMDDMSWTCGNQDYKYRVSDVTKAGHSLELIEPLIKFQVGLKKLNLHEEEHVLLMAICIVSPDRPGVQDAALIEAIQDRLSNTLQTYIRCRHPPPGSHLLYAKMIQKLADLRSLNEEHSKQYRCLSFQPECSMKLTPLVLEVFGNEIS
Description: VDR transcription assay. Format: cell-based. The conditions noted are these: compared with GW0742.

The target in series [3] is T2, PPARδ (Homo sapiens, UniProt Q03181).
T2 sequence (Q03181 211-439 limits assumed): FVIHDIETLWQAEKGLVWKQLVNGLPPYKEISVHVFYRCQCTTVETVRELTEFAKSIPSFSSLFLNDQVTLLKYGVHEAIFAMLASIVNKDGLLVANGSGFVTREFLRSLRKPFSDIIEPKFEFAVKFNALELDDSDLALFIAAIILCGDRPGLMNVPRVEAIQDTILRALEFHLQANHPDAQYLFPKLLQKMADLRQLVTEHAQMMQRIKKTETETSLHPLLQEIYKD
Nature of the series: PPARδ transcription 2-hybrid assay. The series is classed as cell-based. The conditions noted are these: up to 100 μM.

Series [4] can be described thus: Toxicity, Cell-TiterGlo. Format: cell-based. To be noted: n.o.= not observed.

Regarding `COC(=O)c1ccccc1OCc1oc(-c2ccccc2OC)nc1C` [4a], the Papp (as a rule, the rate of passage across a membrane or cell layer, normalised by area and donor concentration) in series [1] was 468 ×10⁻⁶ cm/s.

For `COC(=O)c1ccccc1OCc1oc(-c2cccc(OC)c2)nc1C` [4b], the Papp in series [1] was 513 ×10⁻⁶ cm/s.

For the compound `COC(=O)c1cccc(OCc2oc(-c3ccccc3OC)nc2C)c1` [5a], the “increased potency in respect to GW0742 (VDR antagonism)” value in series [2] was 10 fold. The “activation of PPARδ-mediated transcription (in words)” value in series [3] is reported as “inability to activate”. The compound also showed a Papp in series [1] of 380 ×10⁻⁶ cm/s.

In series [1], `COC(=O)c1cccc(OCc2oc(-c3cccc(OC)c3)nc2C)c1` [5b] showed an apparent permeability coefficient (Papp) of 427 ×10⁻⁶ cm/s.

With `COC(=O)c1ccc(OCc2oc(-c3ccccc3OC)nc2C)cc1` [6a], the Papp in series [1] is 447 ×10⁻⁶ cm/s.

Turning to `COC(=O)c1ccc(OCc2oc(-c3cccc(OC)c3)nc2C)cc1` [6b], the Papp in series [1] was 372 ×10⁻⁶ cm/s.

In the case of `COC(=O)Cc1ccc(OCc2oc(-c3ccccc3OC)nc2C)cc1` [7a], in series [1], the Papp was 275 ×10⁻⁶ cm/s.

Turning to `COC(=O)Cc1ccc(OCc2oc(-c3cccc(OC)c3)nc2C)cc1` [7b], the “activation of PPARδ-mediated transcription (in words)” value in series [3] was “without activating”. Further, in series [1], the Papp is 479 ×10⁻⁶ cm/s.

`COC(=O)CCc1ccc(OCc2oc(-c3ccccc3OC)nc2C)cc1` [8a]: the Papp in series [1] was 457 ×10⁻⁶ cm/s.

In the case of `COC(=O)CCc1ccc(OCc2oc(-c3cccc(OC)c3)nc2C)cc1` [8b], the Papp in series [1] was 457 ×10⁻⁶ cm/s.

`COc1ccccc1-c1nc(C)c(COc2ccccc2C(=O)O)o1` [9a] gave a Papp in series [1] of 234 ×10⁻⁶ cm/s.

As to `COc1cccc(-c2nc(C)c(COc3ccccc3C(=O)O)o2)c1` [9b], in series [1], the Papp is 234 ×10⁻⁶ cm/s.

For the compound `COc1ccccc1-c1nc(C)c(COc2cccc(C(=O)O)c2)o1` [10a], the “% Toxicity at 100 μM” value in series [4] is listed as “n.o”. Moreover, the Papp in series [1] was 263 ×10⁻⁶ cm/s.

`COc1cccc(-c2nc(C)c(COc3cccc(C(=O)O)c3)o2)c1` [10b] had a Papp in series [1] of 132 ×10⁻⁶ cm/s.

For `COc1ccccc1-c1nc(C)c(COc2ccc(C(=O)O)cc2)o1` [11a], the “% Toxicity at 100 μM” value in series [4] was “n.o”. The same compound had an apparent permeability coefficient (Papp) in series [1] of 214 ×10⁻⁶ cm/s.

In the case of `COc1cccc(-c2nc(C)c(COc3ccc(C(=O)O)cc3)o2)c1` [11b], the Papp in series [1] is 170 ×10⁻⁶ cm/s.

With `COc1ccccc1-c1nc(C)c(COc2ccc(CC(=O)O)cc2)o1` [12a], in series [4], the “% Toxicity at 100 μM” value is “n.o”. In addition, the Papp in series [1] is 191 ×10⁻⁶ cm/s.

Take `COc1cccc(-c2nc(C)c(COc3ccc(CC(=O)O)cc3)o2)c1` [12b]: the apparent permeability coefficient (Papp) in series [1] is 132 ×10⁻⁶ cm/s.

In turn, `COc1ccccc1-c1nc(C)c(COc2ccc(CCC(=O)O)cc2)o1` [13a] gave a Papp in series [1] of 257 ×10⁻⁶ cm/s.

In series [1], `COc1cccc(-c2nc(C)c(COc3ccc(CCC(=O)O)cc3)o2)c1` [13b] had a Papp of 120 ×10⁻⁶ cm/s.
